Our source for the IC50 values is ChEMBL document CHEMBL5518196, “Discovery of potent thiazolidin-4-one sulfone derivatives for inhibition of proliferation of osteosarcoma in vitro and in vivo” (Eur J Med Chem, 2024).

The test system of the test is HOS-TE85. The experiment in a line: Antiproliferative activity against human MNNG/HOS cells assessed as inhibition of cell growth incubated for 72 hrs by CCK8 assay. In kind it is functional, cell-based. The note with it: HOS-TE85, 72 h. A general note: Tetrazolium dyes change colour on reduction, which living cells bring about.
Usually IC50 stands for the concentration at which inhibition is half-maximal. Take `COC(=O)CCCNC(=O)c1cccc(C2N(c3ccccn3)C(=O)CS2(=O)=O)n1` (stereo not given): the IC50 was found to be 0.142 µM.

Turning to `O=C(NCCOCc1ccccc1)c1cccc(C2N(c3ccccn3)C(=O)CS2(=O)=O)n1` (stereo not given), the concentration for half-maximal inhibition (IC50) was more than 1 µM.

As to `O=C(NCCCCc1ccccc1)c1cccc(C2N(Cc3ccccc3)C(=O)C[S+]2[O-])c1` (stereo not given), the IC50 was more than 10 µM.

For the molecule `Cc1ccnc(N2C(=O)CS[C@H]2c2cccc(C(=O)NCCCCn3cccn3)c2)c1`, the IC50 is more than 10 µM.

`Cc1ccnc(N2C(=O)CS(=O)(=O)C2c2cccc(C(=O)NCCCCc3ccccc3)n2)c1` (stereo not given): the 50% inhibitory concentration (IC50) was 0.033 µM.

On to `CCCCNC(=O)c1cccc(C2N(c3ccccc3)C(=O)CS2(=O)=O)c1` (stereo not given), for which the concentration for half-maximal inhibition (IC50) was more than 10 µM.

Consider `CN(CCCCc1ccccc1)C(=O)c1cccc(C2N(c3ccccc3)C(=O)CS2(=O)=O)c1` (stereo not given), for which the IC50 is more than 10 µM.

As to `O=C(NCCCCc1ccccc1)c1cccc(C2N(C3CCOCC3)C(=O)CS2(=O)=O)c1` (stereo not given), the IC50 is more than 10 µM.

Take `O=C(NCCCCc1ccccc1)c1cccc(C2N(c3ccc4c(c3)OCO4)C(=O)CS2(=O)=O)c1` (stereo not given): the IC50 is 0.073 µM.

Turning to `O=C(NCCCCc1ccccc1)c1cccc(C2N(CCc3ccccc3)C(=O)C[S+]2[O-])c1` (stereo not given), the IC50 is more than 10 µM.

With `COCCCCNC(=O)c1cccc([C@@H]2N(c3ncccc3OC)C(=O)CS2(=O)=O)n1`, the IC50 stood at 0.113 µM.

Turning to `O=C(NCCCCc1ccccc1)c1cccc(C2N(c3ccccc3)C(=O)C[S+]2[O-])c1` (stereo not given), the 50% inhibitory concentration (IC50) came to 3.11 µM.

For `O=C(NCCCCc1ccccc1)c1cccc(C2N(c3cccc4cccnc34)C(=O)CS2(=O)=O)c1` (stereo not given), the concentration for half-maximal inhibition (IC50) stood at 0.025 µM.

For the molecule `O=C(NCCCC(=O)N1CCCC1)c1cccc(C2N(c3ccccn3)C(=O)CS2(=O)=O)n1` (stereo not given), the IC50 was more than 1 µM.

`Cc1cccc(N2C(=O)CS(=O)(=O)C2c2cccc(C(=O)NCCCCc3ccccc3)n2)n1` (stereo not given): the IC50 amounted to 0.775 µM.

As for `O=C(NCCCCc1ccccc1)c1ccc(C2N(c3ccccc3)C(=O)CS2(=O)=O)o1` (stereo not given), the half-maximal inhibitory concentration (IC50) came to 0.041 µM.

With `O=C(NCCCCc1ccccc1)c1cccc(C2N(c3cccc(F)n3)C(=O)CS2(=O)=O)n1` (stereo not given), the 50% inhibitory concentration (IC50) is more than 1 µM.

As to `O=C(NCCCCc1ccccc1)c1cccc(C2N(c3ccccn3)C(=O)CS2(=O)=O)c1` (stereo not given), the IC50 turned out to be 0.025 µM.

In the case of `COC(=O)c1cc(C(=O)NCCCCc2ccccc2)cc(C2N(c3ccccc3)C(=O)CS2(=O)=O)c1` (stereo not given), the IC50 amounted to 0.06 µM.

Consider `CCCCNC(=O)c1cccc(C2N(c3ccccn3)C(=O)CS2(=O)=O)n1` (stereo not given), for which the IC50 came out at 0.42 µM.

In the case of `O=C(NCCCCc1ccccc1)c1cccc(C2N(c3cccc(F)c3)C(=O)CS2(=O)=O)n1` (stereo not given), the IC50 came to 0.017 µM.

As for `COc1ccccc1N1C(=O)CS(=O)(=O)C1c1cccc(C(=O)NCCCCc2ccccc2)c1` (stereo not given), the IC50 came out at 0.031 µM.

As to `Cc1cc(N2C(=O)C[S+]([O-])C2c2cccc(C(=O)NCCCCc3ccccc3)c2)no1` (stereo not given), the IC50 came out at 0.354 µM.

Turning to `COC(=O)c1cccc(C2N(c3ccccc3)C(=O)CS2(=O)=O)c1` (stereo not given), the IC50 was more than 10 µM.

As for `Cc1cc(N2C(=O)CS(=O)(=O)C2c2cccc(C(=O)NCCCCc3ccccc3)c2)no1` (stereo not given), the IC50 was found to be 0.447 µM.

Regarding `Cc1cccc(N2C(=O)CS(=O)(=O)C2c2cccc(C(=O)NCCCCc3ccccc3)c2)c1` (stereo not given), the IC50 stood at 0.23 µM.

As for `C#Cc1cc(C(=O)NCCCCc2ccccc2)cc(C2N(c3ccccc3)C(=O)CS2(=O)=O)c1` (stereo not given), the IC50 was found to be 0.009 µM.

For the molecule `O=C(NCCCCc1ccccc1)c1cc(C(=O)NCCCCc2ccccc2)cc(C2N(c3ccccc3)C(=O)CS2(=O)=O)c1` (stereo not given), the IC50 was more than 10 µM.

On to `O=C(NCCCCc1ccccc1)c1cccc(C2N(c3ccc(-c4ccccc4)cc3)C(=O)CS2(=O)=O)c1` (stereo not given), for which the IC50 was more than 10 µM.

Turning to `O=C(O)c1cc(C(=O)NCCCCc2ccccc2)cc(C2N(c3ccccc3)C(=O)CS2(=O)=O)c1` (stereo not given), the half-maximal inhibitory concentration (IC50) is more than 10 µM.

With `O=C(NCCCCc1ccccc1)c1ccc(C2N(c3ccccc3)C(=O)CS2(=O)=O)cc1` (stereo not given), the IC50 is more than 10 µM.

Take `O=C(NCCCCc1ccccc1)c1cccc(C2N(c3ccc(F)cn3)C(=O)CS2(=O)=O)n1` (stereo not given): the IC50 was 0.02 µM.

Consider `O=C(NCCCCc1ccccc1)c1cccc(C2N(Cc3ccccc3)C(=O)CS2(=O)=O)c1` (stereo not given), for which the IC50 is more than 10 µM.

Take `O=C(NCCCCc1ccccc1)c1cccc(C2N(C3CC3)C(=O)CS2(=O)=O)c1` (stereo not given): the half-maximal inhibitory concentration (IC50) was more than 10 µM.

Turning to `O=C(CCCNC(=O)c1cccc(C2N(c3ccccn3)C(=O)CS2(=O)=O)n1)c1ccccc1` (stereo not given), the 50% inhibitory concentration (IC50) is 0.203 µM.

For `O=C(CCCNC(=O)c1cccc(C2N(c3ccccn3)C(=O)CS2(=O)=O)n1)Nc1ccccc1` (stereo not given), the IC50 is more than 1 µM.

Turning to `Cc1cccc(N2C(=O)C[S+]([O-])C2c2cccc(C(=O)NCCCCc3ccccc3)c2)c1` (stereo not given), the IC50 was found to be 0.177 µM.

Regarding `COCCCCNC(=O)c1cccc(C2N(c3ncccc3OC)C(=O)CS2(=O)=O)c1` (stereo not given), the IC50 is more than 1 µM.

On to `O=C(NCCCCn1cccn1)c1cccc(C2N(c3ccccn3)C(=O)CS2(=O)=O)n1` (stereo not given), for which the 50% inhibitory concentration (IC50) came to 0.979 µM.

Regarding `O=C(CCCNC(=O)c1cccc(C2N(c3ccccn3)C(=O)CS2(=O)=O)n1)Nc1ccc(F)cc1` (stereo not given), the IC50 is more than 1 µM.

`COCCCCNC(=O)c1cccc([C@H]2N(c3ccc(F)cn3)C(=O)CS2(=O)=O)n1`: the IC50 was found to be 0.137 µM.

With `O=C(NCCCCc1ccccc1)c1cccc(C2N(C3CCCCC3)C(=O)CS2(=O)=O)c1` (stereo not given), the IC50 turned out to be 2.02 µM.

`O=C(NCCCCc1ccccc1)c1cccc(C2N(c3cccc(F)c3)C(=O)C[S+]2[O-])c1` (stereo not given): the IC50 came to 0.083 µM.

Turning to `Cc1ccnc(N2C(=O)C[S+]([O-])C2c2cccc(C(=O)NCCCCn3cccn3)c2)c1` (stereo not given), the concentration for half-maximal inhibition (IC50) worked out at 3.12 µM.

`COC(=O)c1cccc(C2SCC(=O)N2c2ccccn2)n1` (stereo not given): the 50% inhibitory concentration (IC50) was more than 1 µM.

For the molecule `O=C(NCCCCc1ccccc1)c1cc(-c2ccccc2)cc(C2N(c3ccccc3)C(=O)CS2(=O)=O)c1` (stereo not given), the half-inhibitory concentration (IC50) was more than 10 µM.

Turning to `O=C(NCCCCc1ccccc1)c1cccc(C2N(c3ccccc3)C(=O)CS2(=O)=O)c1` (stereo not given), the IC50 turned out to be 0.15 µM.

For the molecule `COc1ccccc1N1C(=O)CS(=O)(=O)C1c1cccc(C(=O)NCCCCc2ccccc2)n1` (stereo not given), the IC50 was 0.004 µM.

For the molecule `Cc1ccc(N2C(=O)CS(=O)(=O)C2c2cccc(C(=O)NCCCCc3ccccc3)n2)nc1` (stereo not given), the IC50 worked out at 0.031 µM.

For the molecule `COCCCCNC(=O)c1cccc(C2N(c3ccccn3)C(=O)C[S+]2[O-])n1` (stereo not given), the 50% inhibitory concentration (IC50) was more than 1 µM.

Take `O=C(NCCCCc1ccccc1)c1cccc(C2N(c3cc(Cl)ccn3)C(=O)CS2(=O)=O)n1` (stereo not given): the IC50 stood at 0.469 µM.

Turning to `COCCCCNC(=O)c1cccc(C2N(c3ccc(F)cn3)C(=O)CS2(=O)=O)n1` (stereo not given), the IC50 stood at 0.283 µM.

As to `COc1ccnc(N2C(=O)CS(=O)(=O)C2c2cccc(C(=O)NCCCCc3ccccc3)n2)c1` (stereo not given), the concentration for half-maximal inhibition (IC50) was 0.178 µM.

On to `CC(C)(C)OCCCCNC(=O)c1cccc(C2N(c3ccccn3)C(=O)CS2(=O)=O)n1` (stereo not given), for which the IC50 was more than 1 µM.

Turning to `COC(=O)CCCCNC(=O)c1cccc(C2N(c3ccccn3)C(=O)CS2(=O)=O)n1` (stereo not given), the IC50 was 0.225 µM.

`O=C(NCCCCO)c1cccc(C2N(c3ccccn3)C(=O)CS2(=O)=O)n1` (stereo not given): the IC50 is more than 1 µM.

Take `O=C(NCCCCc1ccccc1)c1cccc(C2N(c3cccc(Cl)c3)C(=O)CS2(=O)=O)n1` (stereo not given): the 50% inhibitory concentration (IC50) worked out at 0.43 µM.

As to `Cc1ccnc(N2C(=O)C[S+]([O-])C2c2cccc(C(=O)NCCCCc3ccccc3)c2)c1` (stereo not given), the 50% inhibitory concentration (IC50) worked out at 0.074 µM.

For the molecule `O=C(NCCCCc1ccccc1)c1cccc(C2N(c3cccc(Cl)c3)C(=O)CS2(=O)=O)c1` (stereo not given), the half-inhibitory concentration (IC50) stood at 0.075 µM.

In the case of `COC(=O)CCNC(=O)c1cccc(C2N(c3ccccn3)C(=O)CS2(=O)=O)n1` (stereo not given), the IC50 was more than 1 µM.
